The values below come from ChEMBL document CHEMBL4422673, “Discovery, synthesis and characterization of a series of (1-alkyl-3-methyl-1H-pyrazol-5-yl)-2-(5-aryl-2H-tetrazol-2-yl)acetamides as novel GIRK1/2 potassium channel activators” (Bioorg Med Chem Lett, 2019).

The target of one series is T1, Kir3.1/Kir3.2 (Homo sapiens, UniProt P48051+P48549).
T1 sequence (P48549 whole entry): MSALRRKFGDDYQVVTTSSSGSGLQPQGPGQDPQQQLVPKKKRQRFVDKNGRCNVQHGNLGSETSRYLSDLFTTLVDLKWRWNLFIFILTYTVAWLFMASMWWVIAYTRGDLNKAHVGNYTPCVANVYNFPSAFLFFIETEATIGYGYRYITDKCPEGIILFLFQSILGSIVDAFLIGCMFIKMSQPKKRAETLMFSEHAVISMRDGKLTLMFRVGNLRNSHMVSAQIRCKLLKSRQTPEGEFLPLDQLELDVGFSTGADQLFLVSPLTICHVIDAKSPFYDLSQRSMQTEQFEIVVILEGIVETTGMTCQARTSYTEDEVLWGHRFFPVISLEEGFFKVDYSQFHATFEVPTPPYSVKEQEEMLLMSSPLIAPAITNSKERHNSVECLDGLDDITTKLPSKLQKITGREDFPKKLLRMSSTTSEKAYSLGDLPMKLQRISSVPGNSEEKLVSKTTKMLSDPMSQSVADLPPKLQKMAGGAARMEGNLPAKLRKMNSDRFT
T1 sequence (P48051 whole entry): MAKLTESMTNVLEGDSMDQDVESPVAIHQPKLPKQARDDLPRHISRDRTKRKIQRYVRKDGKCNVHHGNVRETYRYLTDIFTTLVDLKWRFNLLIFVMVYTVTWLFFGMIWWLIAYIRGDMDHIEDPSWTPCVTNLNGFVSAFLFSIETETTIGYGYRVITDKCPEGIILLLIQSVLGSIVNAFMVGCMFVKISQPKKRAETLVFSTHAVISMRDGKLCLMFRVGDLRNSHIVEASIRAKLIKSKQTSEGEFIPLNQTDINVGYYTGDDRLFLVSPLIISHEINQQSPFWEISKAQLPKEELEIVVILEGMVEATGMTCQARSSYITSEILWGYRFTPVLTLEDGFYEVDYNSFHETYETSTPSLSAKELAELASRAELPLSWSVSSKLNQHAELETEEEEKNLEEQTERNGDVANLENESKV
The series can be described thus: Activation of human GIRK1/2 expressed in HEK293 cells co-expressing rat mGlu8 by thallium flux assay. It is filed as cell-based.

Series [1] addresses Kir3.1/Kir3.2 (Homo sapiens) (UniProt P48549+P48051). The series can be described thus: Activation of human GIRK1/2 expressed in HEK293 cells co-expressing rat mGlu8 by thallium flux assay relative to control. It is filed as cell-based.
Series [2] addresses T2, Kir3.1/Kir3.4 (Homo sapiens, UniProt P48544+P48549).
T2 sequence (P48549 whole entry): T1 sequence (P48549 whole entry)
T2 sequence (P48544 whole entry): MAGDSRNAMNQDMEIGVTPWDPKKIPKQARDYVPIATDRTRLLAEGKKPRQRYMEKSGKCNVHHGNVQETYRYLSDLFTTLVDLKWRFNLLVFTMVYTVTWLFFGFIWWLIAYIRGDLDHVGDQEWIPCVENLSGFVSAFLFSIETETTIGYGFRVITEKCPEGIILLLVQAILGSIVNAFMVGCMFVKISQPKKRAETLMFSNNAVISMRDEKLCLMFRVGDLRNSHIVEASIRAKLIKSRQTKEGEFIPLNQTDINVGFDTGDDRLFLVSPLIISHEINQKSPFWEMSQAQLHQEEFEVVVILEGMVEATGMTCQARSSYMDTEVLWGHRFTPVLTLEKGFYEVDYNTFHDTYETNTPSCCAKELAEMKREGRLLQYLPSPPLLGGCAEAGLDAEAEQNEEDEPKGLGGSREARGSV
The series can be described thus: (§1) Activation of human GIRK1/4 expressed in HEK293 cells co-expressing rat mGlu8 by thallium flux assay. In kind it is cell-based.

In series [3] the target is Kir3.1/Kir3.4 (Homo sapiens) (UniProt P48549+P48544). Put plainly: Activation of human GIRK1/4 expressed in HEK293 cells co-expressing rat mGlu8 by thallium flux assay relative to control. It is filed as cell-based.
The species named for a further series is Homo sapiens. The series can be described thus: Ratio of EC50 for activation of human GIRK1/4 expressed in HEK293 cells co-expressing rat mGlu8 by thallium flux assay to EC50 for Activation of human GIRK1/2 expressed in HEK293 cells co-expressing rat mGlu8 by thallium flux assay. In kind it is cell-based.
Series [4] can be described thus: Fraction unbound in human plasma. It is filed as ADME, cell-free.
Series [5] in a line: Stability in mouse plasma. It is filed as ADME, cell-free.
Series [6] in a line: Clearance in human liver microsomes.
Series [7] can be described thus: Clearance in mouse liver microsomes.
For series [8], the target named is T3, Kir3.1/Kir3.4 (Homo sapiens, UniProt P48549+P48544).
T3 sequence (P48549 whole entry): T1 sequence (P48549 whole entry)
T3 sequence (P48544 whole entry): T2 sequence (P48544 whole entry)
The series is described as §1. In kind it is cell-based. The note with it: hek293.

Calls of active or inactive are those of the source. The rule behind the calls is not given here. Some results are limits rather than exact numbers.

As to `Cc1cc(NC(=O)Cn2nnc(-c3cccc(Cl)c3)n2)n(C2CCCCC2)n1`, the figures for the EC50 at Kir3.1/Kir3.2 and on Kir3.1/Kir3.4 [2] were 300 nM and 662 nM, respectively. The Emax in [1] was 89%; in series [3], 66%. In addition, the Ratio EC50 in the series filed under Homo sapiens lay within 3 to 5.
On to `Cc1cc(NC(=O)Cn2nncc2-c2ccccc2)n(C2CCCCC2)n1`, for which the EC50 is 375 nM on Kir3.1/Kir3.2 and 1030 nM at Kir3.1/Kir3.4 [2]. In addition, the results for the Emax in [1] and in series [3] were 87% and 49%, respectively. The same compound registered a Fu in series [4] of 0.4%. For the same compound, the Stability entry in [5] was “Unstable”. In addition, the CLhep predicted is 18.3 mL/min/kg in [6] and 87.7 mL/min/kg in series [7].
For the compound `Cc1cc(NC(=O)Cc2ccc(-c3ccccc3)cn2)n(C2CCCCC2)n1`, the EC50 is 1520 nM on Kir3.1/Kir3.2 and “Not Active” at Kir3.1/Kir3.4 [8]. Moreover, in [1], the Emax came to 36%. In [3], the Emax entry is “inactive”.
On to `Cc1cc(NC(=O)Cn2nnc(-c3ccc(F)c(F)c3)n2)n(C2CCCCC2)n1`, for which the figures for the EC50 at Kir3.1/Kir3.2 and at Kir3.1/Kir3.4 [2] were 116 nM and 392 nM, respectively. For the same compound, the Emax in series [1] was determined as 93%; in [3], 79%. In the series listed under Homo sapiens, the Ratio EC50 lay within 3 to 5.
Take `Cc1cc(NC(=O)Cn2nnc(-c3cccc(F)c3)n2)n(C2CCCCC2)n1`: the maximum response (Emax) amounted to 96% in series [1] and 80% in series [3]. The compound also came in with a Fu in series [4] of 1%. Also, the Ratio EC50 in the series listed under Homo sapiens was 3 to 5. Also, the Stability entry in series [5] is on record as “Unstable”. Also, the CLhep predicted in series [6] is 17.8 mL/min/kg; in series [7], 87.1 mL/min/kg.
In the case of `Cc1cc(NC(=O)Cn2nnc(-c3ccccc3)n2)n(CC2CCCCC2)n1`, the EC50 at Kir3.1/Kir3.2 was 176 nM; at Kir3.1/Kir3.4 [2], 283 nM. The figures for the Emax in series [1] and in [3] were 77% and 58%, respectively. In addition, the Fu in series [4] came to 0.3%. For the same compound, the Stability entry in series [5] is listed as “Unstable”. The CLhep predicted is 20.4 mL/min/kg in series [6] and 88.7 mL/min/kg in [7].
For `Cc1cc(NC(=O)Cn2nnc(-c3ccccc3)n2)n(C2CCS(=O)(=O)CC2)n1`, the figures for the EC50 on Kir3.1/Kir3.2 and on Kir3.1/Kir3.4 [8] were over 10000 nM and “Not Active”, respectively. The same compound gave an Emax in series [1] of over 25%. Also, the Emax entry in [3] is “inactive”.
Take `Cc1cc(NC(=O)Cn2nnc(-c3ccccc3)n2)n(C2CCC(C)(C)CC2)n1`: the EC50 at Kir3.1/Kir3.2 was over 221 nM; at Kir3.1/Kir3.4 [8], “Not Active”. In series [1], this compound registered an Emax of over 19%. Moreover, in [3], the Emax entry was “inactive”.
Regarding `CC1(c2cc(NC(=O)Cn3nnc(-c4ccccc4)n3)n(C3CCCCC3)n2)CC1`, the values for the EC50 at Kir3.1/Kir3.2 and at Kir3.1/Kir3.4 [8] were over 10000 nM and “Not Active”, respectively. The Emax in series [1] was over 10%. The Emax entry in series [3] is “inactive”.
`Cc1cc(NC(=O)Cn2cc(-c3ccccc3)nn2)n(C2CCCCC2)n1`: the EC50 came out at 116 nM on Kir3.1/Kir3.2 and 412 nM at Kir3.1/Kir3.4 [2]. The values for the Emax in [1] and in [3] were 87% and 76%, respectively. The Fu in [4] was 3%. Also, in [5], the Stability entry is “Unstable”. Besides, the CLhep predicted in series [6] is 14.6 mL/min/kg; in series [7], 78.2 mL/min/kg.
As to `Cc1cc(NC(=S)Cn2nnc(-c3ccccc3)n2)n(C2CCCCC2)n1`, the EC50 turned out to be 623 nM on Kir3.1/Kir3.2 and 1260 nM at Kir3.1/Kir3.4 [2]. Besides, the values for the Emax in [1] and in [3] were 80% and 36%, respectively. The Fu in [4] was under 0.06%. Also, the Stability entry in series [5] was “Unstable”. The CLhep predicted in [6] is 18.9 mL/min/kg.
Take `Cc1cc(NC(=O)Cn2nnc(-c3ccccc3)n2)n(C2CCC(F)(F)CC2)n1`: the EC50 on Kir3.1/Kir3.2 is 84 nM; at Kir3.1/Kir3.4 [2], 383 nM. In addition, the results for the Emax in [1] and in [3] were 68% and 52%, respectively. The Fu in [4] was 1.5%. Also, the Stability entry in series [5] was “Unstable”. Also, the results for the CLhep predicted in [6] and in series [7] were 15.9 mL/min/kg and 80 mL/min/kg, respectively.
Take `Cc1cc(NC(=O)Cc2coc(-c3ccccc3)n2)n(C2CCCCC2)n1`: the figures for the EC50 at Kir3.1/Kir3.2 and at Kir3.1/Kir3.4 [2] were over 11000 nM and 3980 nM, respectively. The Emax is over 69% in series [1] and 22% in series [3].
